Test results as given in ChEMBL document CHEMBL1156187, “Discovery of a selective small-molecule melanocortin-4 receptor agonist with efficacy in a pilot study of sexual dysfunction in humans” (J Med Chem, 2010).
Calls of active or inactive are those of the source. The calls are words filed in the database; no cut-off is given here.

Legend:
[1] = Binding affinity to sigma opioid receptor
[2] = Terminal half life in human at 195 mg, po; assay type: ADME, organism-based; settings: in vivo, read-out: beta t1/2 (converted)
[3] = Tmax in dog at 0.67 mg/kg, sublingual; assay type: ADME, organism-based, Canis lupus familiaris; set-up: dose 0.67 mg/kg; settings: in vivo
[4] = Drug excretion in iv dosed rat urine; assay type: ADME, organism-based; settings: read-out: Drug uptake
[5] = AUC (0 to infinity) in dog at 0.14 mg/kg, sublingual; assay type: ADME, organism-based, Canis lupus familiaris; set-up: time infinity, route sublingual, dose 0.14 mg/kg; settings: plasma
[6] = Association constant, pKa of the compound; assay type: physicochemical
[7] = molecular target: T1, Melanocortin receptor 3 (Homo sapiens, UniProt P41968); experiment: Agonist activity at human recombinant MC3 receptor expressed in CHO cells assessed as cAMP accumulation by enzyme fragment complementation assay; assay type: functional, cell-based
[8] = molecular target: T2, Melanocyte-stimulating hormone receptor (Homo sapiens, UniProt Q01726); experiment: Agonist activity at human recombinant MC1 receptor expressed in HEK293 cells assessed as cAMP accumulation by enzyme fragment complementation assay; assay type: functional, cell-based
Target sequence in this assay (Q01726 whole entry, the tested form may be a part): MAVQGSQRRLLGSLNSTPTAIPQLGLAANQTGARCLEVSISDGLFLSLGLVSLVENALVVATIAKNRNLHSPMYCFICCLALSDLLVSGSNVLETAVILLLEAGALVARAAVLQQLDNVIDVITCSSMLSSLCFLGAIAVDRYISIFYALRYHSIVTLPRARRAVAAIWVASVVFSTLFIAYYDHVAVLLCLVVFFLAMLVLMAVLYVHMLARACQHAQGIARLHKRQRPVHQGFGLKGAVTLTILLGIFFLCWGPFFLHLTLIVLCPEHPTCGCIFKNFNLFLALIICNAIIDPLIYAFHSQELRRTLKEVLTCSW

[9] = molecular target: T2, Melanocyte-stimulating hormone receptor; experiment: Agonist activity at human recombinant MC1 receptor expressed in HEK293 cells assessed as cAMP accumulation by enzyme fragment complementation assay relative to alpha melanocyte-stimulating hormone; assay type: functional, cell-based
Target sequence in this assay (Q01726 whole entry, looked up, the tested form may be a part): as the sequence (Q01726 whole entry, the tested form may be a part) above

[10] = Half life in dog at 0.5 mg/kg, po; assay type: ADME, organism-based, Canis lupus familiaris; set-up: dose 0.5 mg/kg, route oral; settings: in vivo
[11] = Intrinsic clearance in human liver microsome measured per mg of protein; assay type: ADME; settings: liver microsomes
[12] = species: Homo sapiens; experiment: Toxicity in human assessed as minimum effective dose; assay type: organism-based; settings: in vivo
[13] = Bioavailability in dog at 2.04 mg/kg, sublingual; assay type: ADME, organism-based, Canis lupus familiaris; settings: in vivo
[14] = Tmax in dog at 0.14 mg/kg, sublingual; assay type: ADME, organism-based, Canis lupus familiaris; set-up: dose 0.14 mg/kg; settings: in vivo
[15] = Intrinsic clearance in dog liver microsome measured per mg of protein; assay type: ADME, Canis lupus familiaris; settings: microsomes
[16] = Tmax in dog at 0.5 mg/kg, po; assay type: ADME, organism-based, Canis lupus familiaris; set-up: dose 0.5 mg/kg, route oral; settings: in vivo
[17] = Drug excretion in iv dosed rat bile; assay type: ADME, organism-based; settings: read-out: Drug uptake
[18] = Clearance in rat at 1 mg/kg, iv; assay type: ADME, organism-based; set-up: dose 1 mg/kg, route intravenous; settings: in vivo
[19] = Tmax in dog at 2.04 mg/kg, sublingual; assay type: ADME, organism-based, Canis lupus familiaris; set-up: dose 2.04 mg/kg; settings: in vivo
[20] = tested on: Homo sapiens; experiment: Reversal of erectile dysfunction in human assessed as non-visual sexual stimulation at 200 mg, po after 2 hrs post dose; assay type: functional, organism-based
[21] = Cmax in dog at 2.04 mg/kg, sublingual; assay type: ADME, organism-based, Canis lupus familiaris; set-up: dose 2.04 mg/kg, route sublingual; settings: in vivo
[22] = molecular target: T3, Melanocortin receptor 4 (Homo sapiens, UniProt P32245); experiment: Displacement of [125I]-MT-II from human recombinant MC4 receptor expressed in CHO cells by scintillation counting
[23] = tested on: Homo sapiens; experiment: Reversal of erectile dysfunction in human assessed as visual sexual stimulation at 200 mg, po dosed twice with the interval of 7 days measuerd after 2 hrs post-dose on day 7; assay type: functional, organism-based
[24] = Apparent Permeability from apical to basolateral side of MDCK2 cells over expressing MDR1; assay type: ADME, cell-based, Canis lupus familiaris; settings: dog, MDCK-MDR1; read-out: permeability
[25] = (§1) Oral bioavailability in dog at 0.5 mg/kg; assay type: ADME, organism-based, Canis lupus familiaris; settings: in vivo
[26] = Fraction unbound in dog plasma; assay type: ADME, cell-free, Canis lupus familiaris
[27] = Half life in dog at 2.04 mg/kg, sublingual; assay type: ADME, organism-based, Canis lupus familiaris; set-up: dose 2.04 mg/kg; settings: in vivo
[28] = Bioavailability in dog at 0.14 mg/kg, sublingual; assay type: ADME, organism-based, Canis lupus familiaris; settings: in vivo
[29] = AUC (0 to infinity) in dog at 2.04 mg/kg, sublingual; assay type: ADME, organism-based, Canis lupus familiaris; set-up: time infinity, dose 2.04 mg/kg, route sublingual; settings: plasma
[30] = tested on: Liver microsomes; experiment: Intrinsic clearance in rat liver microsome measured per mg of protein; assay type: ADME
[31] = Apparent Permeability from basolateral to apical side of MDCK2 cells over expressing MDR1; assay type: ADME, cell-based, Canis lupus familiaris; settings: dog, MDCK-MDR1; read-out: permeability
[32] = Peak plasma concentration in rat at 195 mg, sublingual; assay type: ADME, organism-based
[33] = tested on: Homo sapiens; experiment: Reversal of erectile dysfunction in human assessed as non-visual sexual stimulation at 200 mg, po dosed twice with the interval of 7 days after 2 hrs post dose; assay type: functional, organism-based
[34] = Cmax in dog at 0.67 mg/kg, sublingual; assay type: ADME, organism-based, Canis lupus familiaris; set-up: dose 0.67 mg/kg, route sublingual; settings: in vivo
[35] = molecular target: T3, Melanocortin receptor 4; experiment: Agonist activity at human recombinant MC4 receptor expressed in CHO cells by cAMP responsive beta lactamase reporter gene assay; assay type: functional, cell-based
[36] = Cmax in dog at 0.14 mg/kg, intranasal; assay type: ADME, organism-based, Canis lupus familiaris; set-up: route nasal, dose 0.14 mg/kg; settings: in vivo, inhaled or intranasal
[37] = Bioavailability in dog at 0.14 mg/kg, intranasal; assay type: ADME, organism-based, Canis lupus familiaris; settings: in vivo, inhaled or intranasal
[38] = Cmax in dog at 0.5 mg/kg, po; assay type: ADME, organism-based, Canis lupus familiaris; set-up: dose 0.5 mg/kg, route oral; settings: in vivo
[39] = Half life in dog at 0.14 mg/kg, intranasal; assay type: ADME, organism-based, Canis lupus familiaris; set-up: dose 0.14 mg/kg; settings: in vivo, inhaled or intranasal
[40] = Fraction unbound in rat plasma; assay type: ADME, cell-free
[41] = as §1; assay type: ADME, organism-based, Canis lupus familiaris; settings: in vivo; remark: listed apart in the source
[42] = Volume of distribution at steady state in dog plasma at 0.5 mg/kg, iv; assay type: ADME, organism-based, Canis lupus familiaris; set-up: dose 0.5 mg/kg, route intravenous; settings: read-out: Vdss
[43] = Half life in rat at 1 mg/kg, iv; assay type: ADME, organism-based; set-up: dose 1 mg/kg, route intravenous; settings: in vivo
[44] = Volume of distribution at steady state in rat at 1 mg/kg, iv; assay type: ADME, organism-based; set-up: dose 1 mg/kg, route intravenous; settings: in vivo, read-out: Vdss
[45] = molecular target: T4, Melanocortin receptor 5 (Homo sapiens, UniProt P33032); experiment: Agonist activity at human recombinant MC5 receptor expressed in HEK293 cells assessed as cAMP accumulation by beta lactamase reporter gene assay relative to alpha melanocyte-stimulating hormone; assay type: functional, cell-based
[46] = Drug excretion in rat urine assessed as parent compound level at 195 mg; assay type: ADME; settings: read-out: Drug uptake
[47] = Bioavailability in dog at 0.67 mg/kg, sublingual; assay type: ADME, organism-based, Canis lupus familiaris; settings: in vivo
[48] = Oral bioavailability in rat at 1 mg/kg; assay type: ADME, organism-based; settings: in vivo
[49] = Peak plasma concentration in rat at 195 mg, po; assay type: ADME, organism-based
[50] = AUC (0 to infinity) in dog at 0.67 mg/kg, sublingual; assay type: ADME, organism-based, Canis lupus familiaris; set-up: route sublingual, dose 0.67 mg/kg, time infinity; settings: plasma
[51] = tested on: Homo sapiens; experiment: Reversal of erectile dysfunction in human assessed as visual sexual stimulation at 200 mg, po after 2 hrs post dose; assay type: functional, organism-based
[52] = Cmax in dog at 0.14 mg/kg, sublingual; assay type: ADME, organism-based, Canis lupus familiaris; set-up: route sublingual, dose 0.14 mg/kg; settings: in vivo
[53] = molecular target: T4, Melanocortin receptor 5; experiment: Agonist activity at human recombinant MC5 receptor expressed in HEK293 cells assessed as cAMP accumulation by beta lactamase reporter gene assay; assay type: functional, cell-based
[54] = Half life in dog at 0.5 mg/kg, iv; assay type: ADME, organism-based, Canis lupus familiaris; set-up: dose 0.5 mg/kg, route intravenous; settings: in vivo
[55] = Binding affinity to sodium channel
[56] = Tmax in dog at 0.14 mg/kg, intranasal; assay type: ADME, organism-based, Canis lupus familiaris; set-up: dose 0.14 mg/kg; settings: in vivo, inhaled or intranasal
[57] = Half life in dog at 0.67 mg/kg, sublingual; assay type: ADME, organism-based, Canis lupus familiaris; set-up: dose 0.67 mg/kg; settings: in vivo
[58] = Half life in dog at 0.14 mg/kg, sublingual; assay type: ADME, organism-based, Canis lupus familiaris; set-up: dose 0.14 mg/kg; settings: in vivo
[59] = molecular target: T1, Melanocortin receptor 3; experiment: Agonist activity at human recombinant MC3 receptor expressed in CHO cells assessed as cAMP accumulation by enzyme fragment complementation assay relative to […]; assay type: functional, cell-based
[60] = AUC (0 to infinity) in dog at 0.14 mg/kg, intranasal; assay type: ADME, organism-based, Canis lupus familiaris; set-up: route nasal, time infinity, dose 0.14 mg/kg; settings: plasma, inhaled or intranasal
[61] = AUC (0 to infinity) in dog at 0.5 mg/kg, po; assay type: ADME, organism-based, Canis lupus familiaris; set-up: time infinity, dose 0.5 mg/kg, route oral; settings: plasma
[62] = Clearance in dog plasma at 0.5 mg/kg, iv; assay type: ADME, organism-based, Canis lupus familiaris; set-up: dose 0.5 mg/kg, route intravenous
[63] = Lipophilicity, log D at pH 7.4; assay type: physicochemical; settings: buffer

T4 sequence (P33032 whole entry): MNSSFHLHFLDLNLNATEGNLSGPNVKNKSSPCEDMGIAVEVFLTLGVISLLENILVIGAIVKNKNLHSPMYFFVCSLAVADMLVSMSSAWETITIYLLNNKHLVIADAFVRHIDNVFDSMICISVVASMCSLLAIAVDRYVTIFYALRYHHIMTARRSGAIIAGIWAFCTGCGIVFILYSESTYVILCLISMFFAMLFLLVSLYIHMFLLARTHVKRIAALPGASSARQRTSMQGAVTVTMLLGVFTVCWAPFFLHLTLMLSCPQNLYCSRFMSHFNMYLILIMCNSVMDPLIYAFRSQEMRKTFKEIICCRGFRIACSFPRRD
T1 sequence (P41968 whole entry, the tested form may be a part): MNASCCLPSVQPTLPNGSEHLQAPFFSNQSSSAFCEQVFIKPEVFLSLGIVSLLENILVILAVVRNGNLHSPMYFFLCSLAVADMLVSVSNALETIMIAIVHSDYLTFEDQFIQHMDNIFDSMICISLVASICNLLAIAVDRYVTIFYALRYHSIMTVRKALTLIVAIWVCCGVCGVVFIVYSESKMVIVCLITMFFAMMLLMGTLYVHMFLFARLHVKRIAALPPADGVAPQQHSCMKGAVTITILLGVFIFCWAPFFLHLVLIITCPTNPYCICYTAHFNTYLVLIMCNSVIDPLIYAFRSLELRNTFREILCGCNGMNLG
T3 sequence (P32245 whole entry): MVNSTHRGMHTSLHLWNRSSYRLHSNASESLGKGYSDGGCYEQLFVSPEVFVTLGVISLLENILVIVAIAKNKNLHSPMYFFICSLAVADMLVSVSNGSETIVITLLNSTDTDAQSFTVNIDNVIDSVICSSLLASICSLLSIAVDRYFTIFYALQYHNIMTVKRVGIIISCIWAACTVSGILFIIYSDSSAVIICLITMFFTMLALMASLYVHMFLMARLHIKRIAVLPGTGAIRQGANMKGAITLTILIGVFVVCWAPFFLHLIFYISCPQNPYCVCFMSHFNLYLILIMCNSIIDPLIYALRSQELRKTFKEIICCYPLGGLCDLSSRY

Compound: C[C@@H]1CN(C(=O)[C@@H]2CN(C(C)(C)C)C[C@H]2c2ccc(F)cc2F)C[C@H](C)[C@@]1(O)c1ccccc1.Cl
- Ki [1]: 0.33 µM
- half-life [2]: 12 h
- Tmax [3]: 0.3 h
- dose excreted [4]: < 3%
- AUC(0-inf) [5]: 17 ng·h/mL
- pKa [6]: 8.95
- EC50 [7]: 1.16 µM
- EC50 [8]: 1.02 µM
- Emax [9]: 103%
- half-life [10]: 1.9 h
- microsomal CLint [11]: 45 µL/min/mg
- Activity [12]: Toxic
- bioavailability [13]: 20%
- Tmax [14]: 0.7 h
- clearance [15]: 242 µL/min/mg
- Tmax [16]: 1 h
- dose excreted [17]: < 1%
- clearance [18]: 89 mL/min/kg
- Tmax [19]: 0.3 h
- Activity [20]: Active
- Cmax [21]: 41 ng/mL
- Ki [22]: 0.027 µM
- Activity [23]: Active
- Papp A→B [24]: 41 ×10⁻⁶ cm/s
- bioavailability [25]: 1%
- fraction unbound [26]: 0.15
- half-life [27]: 4 h
- bioavailability [28]: 35%
- AUC(0-inf) [29]: 146 ng·h/mL
- clearance [30]: 60 µL/min/mg
- Papp B→A [31]: 18 ×10⁻⁶ cm/s
- Cmax [32]: 31 ng/mL
- Activity [33]: Active
- Cmax [34]: 15 ng/mL
- EC50 [35]: 0.012 µM
- Cmax [36]: 2.6 ng/mL
- bioavailability [37]: 24%
- Cmax [38]: 0.9 ng/mL
- half-life [39]: 3.3 h
- fraction unbound [40]: 0.07
- bioavailability [41]: 1%
- Vd [42]: 17 L/kg
- half-life [43]: 2.4 h
- Vd [44]: 19 L/kg
- Emax [45]: 100%
- dose excreted [46]: < 2.5%
- bioavailability [47]: 26%
- bioavailability [48]: 20%
- Cmax [49]: 30 ng/mL
- AUC(0-inf) [50]: 64 ng·h/mL
- Activity [51]: Active
- Cmax [52]: 2.6 ng/mL
- EC50 [53]: 1.98 µM
- half-life [54]: 4.2 h
- Ki [55]: 0.69 µM
- Tmax [56]: 1.6 h
- half-life [57]: 3.6 h
- half-life [58]: 3.7 h
- Emax [59]: 99%
- AUC(0-inf) [60]: 12 ng·h/mL
- AUC(0-inf) [61]: 1.8 ng·h/mL
- clearance [62]: 46 mL/min/kg
- logD [63]: 2.8
